According to patent EP4596548A1, “NURR1 MODULATORS” (Ludwig-Maximilians-Universität, priority 2024, dated 2025):
Entries after “also recorded” stand apart in the source; their conditions may differ. Read-outs that look alike come from different tables or passages of the source.

Experiments:
[1] = Compound stability (observation); assay type: physicochemical; conditions: printed in the EC50 column of Table 1
Nurr1 [2] = biological target: T1, Nurr1 (Homo sapiens, UniProt P43354); assay: Ligand efficiency metrics; conditions: computed according to ref. 29
Target sequence in this assay (P43354 whole entry): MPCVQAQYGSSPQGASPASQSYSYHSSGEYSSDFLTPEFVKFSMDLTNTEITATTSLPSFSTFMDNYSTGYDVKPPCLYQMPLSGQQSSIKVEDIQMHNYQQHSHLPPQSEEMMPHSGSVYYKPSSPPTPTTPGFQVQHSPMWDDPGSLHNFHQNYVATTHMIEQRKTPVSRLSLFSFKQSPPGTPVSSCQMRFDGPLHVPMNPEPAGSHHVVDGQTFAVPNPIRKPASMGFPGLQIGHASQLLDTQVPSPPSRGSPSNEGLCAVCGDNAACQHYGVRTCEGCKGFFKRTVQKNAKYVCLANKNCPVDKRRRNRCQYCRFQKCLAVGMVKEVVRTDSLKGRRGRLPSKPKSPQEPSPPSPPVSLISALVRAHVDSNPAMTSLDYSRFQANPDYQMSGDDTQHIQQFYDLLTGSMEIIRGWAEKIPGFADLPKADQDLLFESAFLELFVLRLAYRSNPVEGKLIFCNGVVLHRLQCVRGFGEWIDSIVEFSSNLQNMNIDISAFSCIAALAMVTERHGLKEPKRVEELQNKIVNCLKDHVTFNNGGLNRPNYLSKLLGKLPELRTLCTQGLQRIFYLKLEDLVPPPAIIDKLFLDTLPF

Nurr1 [3] = biological target: T1, Nurr1; conditions: Nurr1 agonism, literature values (refs. 24, 27, 28); cited from earlier work
Target sequence in this assay (P43354 whole entry): as above

NOR-1 = biological target: T2, NOR-1 (Homo sapiens, UniProt Q92570); assay: Gal4 hybrid reporter gene assay, selectivity profiling (NOR-1); assay type: cell-based; conditions: result in words, at 10 µM
T2 construct: pFA-CMV-NOR-1-LBD; expressed in transfected cells; host or cells: HEK293T
T2 sequence (Q92570 394-623 limits assumed): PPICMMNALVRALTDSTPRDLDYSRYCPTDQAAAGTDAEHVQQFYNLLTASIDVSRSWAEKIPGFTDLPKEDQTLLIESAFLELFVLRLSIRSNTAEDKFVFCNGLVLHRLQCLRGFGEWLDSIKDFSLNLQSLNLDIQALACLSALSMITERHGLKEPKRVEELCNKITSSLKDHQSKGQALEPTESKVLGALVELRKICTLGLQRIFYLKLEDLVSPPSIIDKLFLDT

Nurr1 LBD = biological target: T3, Nurr1 LBD (Homo sapiens, UniProt P43354); assay: Isothermal titration calorimetry (ITC); assay type: binding
T3 construct: Nurr1 LBD protein (10-30 µM, expressed as described previously^21); made in house
T3 sequence (P43354 360-595 limits assumed): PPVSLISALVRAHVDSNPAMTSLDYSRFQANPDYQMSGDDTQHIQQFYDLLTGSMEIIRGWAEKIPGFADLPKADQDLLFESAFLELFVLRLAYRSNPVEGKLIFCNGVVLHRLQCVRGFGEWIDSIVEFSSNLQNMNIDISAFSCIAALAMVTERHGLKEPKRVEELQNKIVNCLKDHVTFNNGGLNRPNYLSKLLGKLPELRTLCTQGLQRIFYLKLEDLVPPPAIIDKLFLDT
Method: Isothermal Titration Calorimetry (ITC). ITC experiments were conducted on an Affinity ITC instrument (TA Instruments, New Castle, DE) at 25°C with a stirring rate of 75 rpm. Nurr1 LBD protein (10-30 µM, expressed as described previously^21) in buffer (20 mM Tris pH 7.5, 100 mM NaCl, 5% glycerol) containing 1-4% DMSO was titrated with the test compounds (60-150 µM in the same buffer containing 1-4% DMSO) in 26 injections (1x 1 µL, 25x 3-4 µL) with an injection interval of 150 s. As control experiments, the test compounds were titrated to the buffer, and the buffer was titrated to the Nurr1 LBD protein under otherwise identical conditions. Results were analyzed using NanoAnalyze software (version 3.11.0, TA Instruments, New Castle, DE) with independent binding models.

[4] = test system: Nurr1-regulated tyrosine hydroxylase (TH), vesicular amino acid transporter 2 (VMAT2) and superoxide dismutase 2 (SOD2) in astrocytes (T98G); assay: Nurr1-regulated gene expression in T98G cells (qPCR); assay type: cell-based, human
Nurr1 [5] = biological target: T1, Nurr1; assay: Gal4-Nurr1 hybrid reporter gene assay in HEK293T cells; assay type: cell-based; design: expressed in transfected cells; host or cells: HEK293T
Method: (§1) Hybrid reporter gene assays. Nurr1 modulation was determined in a Gal4 hybrid reporter gene assay in HEK293T cells (German Collection of Microorganisms and Cell Culture GmbH, DSMZ) using pFR-Luc (Stratagene, La Jolla, CA, USA; reporter), pRL-SV40 (Promega, Madison, WI, USA; internal control) and pFA-CMV-hNurr1-LBD^14, coding for the hinge region and ligand binding domain of the canonical isoform of human Nurr1. […] After 24 h, medium was changed to Opti-MEM without supplements and cells were transiently transfected using Lipofectamine LTX reagent (Invitrogen, Carlsbad, CA, USA) according to the manufacturer's protocol. Five hours after transfection, cells were incubated with the test compounds in Opti-MEM supplemented with penicillin (100 U/mL), streptomycin (100 µg/mL) and 0.1% DMSO for 16 h before luciferase activity was measured using the Dual-Glo Luciferase Assay System (Promega) according to the manufacturer's protocol on a Tecan Spark luminometer (Tecan Deutschland GmbH, Crailsheim, Germany). Firefly luminescence was divided by Renilla luminescence and multiplied by 1000 resulting in relative light units (RLU) to normalize for transfection efficiency and cell growth. Fold activation was obtained by dividing the mean RLU of test compound by the mean RLU of the untreated control. All samples were tested in at least three biologically independent experiments in duplicates. For dose-response curve fitting and calculation of EC50 values, the equation "[Agonist] vs. response -- Variable slope (four parameters)" was used in GraphPad Prism (version 7.00, GraphPad Software, La Jolla, CA, USA). Selectivity profiling was performed with identical procedures using pFA-CMV-Nur77-LBD^14, pFA-CMV-NOR-1-LBD^14, pFA-CMV-THRα-LBD^39, pFA-CMV-RARα-LBD^40, pFA-CMV-PPARα-LBD^41, pFA-CMV-PPARγ-LBD^41, pFA-CMV-PPARδ-LBD^41, pFA-CMV-LXRα-LBD^37, pFA-CMV-FXR-LBD^42 and pFA-CMV-hRXRα-LBD^43.
Target sequence in this assay (P43354 360-595 limits assumed): as above

Nurr1 monomer (NBRE) = biological target: T4, Nurr1 monomer (NBRE) (Homo sapiens, UniProt P43354); assay: Full-length Nurr1 reporter gene assay, response element NBRE; assay type: cell-based; conditions: result in words
T4 construct: The full length human nuclear receptor Nurr1 (pcDNA3.1-hNurr1-NE; Addgene plasmid #102363); NE (suffix in the plasmid name); host or cells: HEK293T
T4 sequence (P43354 whole entry): as the sequence (P43354 whole entry) above
Source text: (§2) Full-length Nurr1 reporter gene assays. Activation of full length human Nurr1 was studied in transiently transfected HEK293T cells using the reporter plasmids pFR-Luc-NBRE^14, pFR-Luc-POMC^14 or pFR-Luc-DR5^14 each containing one copy of the respective human Nurr1 response element NBRE Nl3, NurRE, or DR5. The full length human nuclear receptor Nurr1 (pcDNA3.1-hNurr1-NE; Addgene plasmid #102363) and, for DR5, RXRα (pSG5-hRXR)^44 were overexpressed. pRL-SV40 (Promega) was used for normalization of transfection efficacy and to observe test compound toxicity. […] After 24 h, medium was changed to Opti-MEM without supplements and cells were transiently transfected using Lipofectamine LTX reagent (invitrogen) according to the manufacturer's protocol. Five hours after transfection, cells were incubated with the test compounds in Opti-MEM supplemented with penicillin (100 U/mL), streptomycin (100 µg/mL) and 0.1% DMSO for 16 h before luciferase activity was measured using the Dual-Glo Luciferase Assay System (Promega) according to the manufacturer's protocol on a Tecan Spark luminometer (Tecan Deutschland GmbH). Firefly luminescence was divided by Renilla luminescence and multiplied by 1000 resulting in relative light units (RLU) to normalize for transfection efficiency and cell growth. […]

Nurr1 homodimer (NurRE) = biological target: T5, Nurr1 homodimer (NurRE) (Homo sapiens, UniProt P43354); assay: Full-length Nurr1 reporter gene assay, response element NurRE; assay type: cell-based
T5 construct: The full length human nuclear receptor Nurr1 (pcDNA3.1-hNurr1-NE; Addgene plasmid #102363); host or cells: HEK293T
T5 sequence (P43354 whole entry): as above
Source text: as §2

[6] = biological target: T6, Nurr1-RXR heterodimer (DR5) (Homo sapiens, UniProt P43354); assay: Full-length Nurr1 reporter gene assay, response element DR5 with RXRα; assay type: cell-based
T6 construct: The full length human nuclear receptor Nurr1 (pcDNA3.1-hNurr1-NE; Addgene plasmid #102363); NE (suffix in the plasmid name); host or cells: HEK293T
T6 sequence (P43354 whole entry): as above
T6 sequence (P19793 whole entry partner): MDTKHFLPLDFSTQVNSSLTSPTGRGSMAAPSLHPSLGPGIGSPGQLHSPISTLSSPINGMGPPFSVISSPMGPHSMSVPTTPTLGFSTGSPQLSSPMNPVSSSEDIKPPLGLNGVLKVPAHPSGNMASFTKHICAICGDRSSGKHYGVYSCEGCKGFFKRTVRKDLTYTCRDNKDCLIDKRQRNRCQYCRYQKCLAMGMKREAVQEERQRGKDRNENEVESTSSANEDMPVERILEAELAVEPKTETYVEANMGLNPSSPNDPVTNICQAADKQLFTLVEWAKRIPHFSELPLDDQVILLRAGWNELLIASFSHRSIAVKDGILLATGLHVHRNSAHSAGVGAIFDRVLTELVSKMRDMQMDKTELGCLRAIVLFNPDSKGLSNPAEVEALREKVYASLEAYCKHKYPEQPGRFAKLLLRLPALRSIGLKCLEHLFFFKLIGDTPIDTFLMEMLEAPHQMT
Source text: Full-length Nurr1 reporter gene assays. Activation of full length human Nurr1 was studied in transiently transfected HEK293T cells using the reporter plasmids pFR-Luc-NBRE^14, pFR-Luc-POMC^14 or pFR-Luc-DR5^14 each containing one copy of the respective human Nurr1 response element NBRE Nl3, NurRE, or DR5. The full length human nuclear receptor Nurr1 (pcDNA3.1-hNurr1-NE; Addgene plasmid #102363) and, for DR5, RXRα (pSG5-hRXR)^44 were overexpressed. pRL-SV40 (Promega) was used for normalization of transfection efficacy and to observe test compound toxicity. […] After 24 h, medium was changed to Opti-MEM without supplements and cells were transiently transfected using Lipofectamine LTX reagent (invitrogen) according to the manufacturer's protocol. Five hours after transfection, cells were incubated with the test compounds in Opti-MEM supplemented with penicillin (100 U/mL), streptomycin (100 µg/mL) and 0.1% DMSO for 16 h before luciferase activity was measured using the Dual-Glo Luciferase Assay System (Promega) according to the manufacturer's protocol on a Tecan Spark luminometer (Tecan Deutschland GmbH). Firefly luminescence was divided by Renilla luminescence and multiplied by 1000 resulting in relative light units (RLU) to normalize for transfection efficiency and cell growth. Fold activation was obtained by dividing the mean RLU of test compound by the mean RLU of the untreated control. All samples were tested in at least three biologically independent experiments in duplicates. For dose-response curve fitting and calculation of EC50 values, the equation "[Agonist] vs. response -- Variable slope (four parameters)" was used in GraphPad Prism (version 7.00, GraphPad Software).

[7] = Determination of aqueous solubility; assay type: physicochemical; conditions: water, 24 h, 25°C
Method: Determination of aqueous solubility. […] The mixture was agitated in a VWR Thermal Shake lite (VWR International GmbH, Darmstadt, Germany) for 24 h at 600 rpm and constant temperature of 25°C. The supersaturated mixtures were subsequently centrifuged at 23.300 rpm for 15 min (25 °C). Part of the supernatant was taken off for quantification by UV absorbance at 312 nm with external calibration. The external calibration samples contained 1% DMSO and the test samples were spiked with DMSO to 1% concentration right before the measurement. Absorbance was measured with a Tecan Spark luminometer (Tecan Deutschland GmbH, Crailsheim, Germany). The solubility test was repeated in three independent experiments, […]

Nur77 = biological target: T7, Nur77 (Homo sapiens, UniProt P22736); assay: Gal4 hybrid reporter gene assay, selectivity profiling (Nur77); assay type: cell-based
T7 construct: expressed in transfected cells; host or cells: HEK293T
T7 sequence (P22736 360-595 limits assumed): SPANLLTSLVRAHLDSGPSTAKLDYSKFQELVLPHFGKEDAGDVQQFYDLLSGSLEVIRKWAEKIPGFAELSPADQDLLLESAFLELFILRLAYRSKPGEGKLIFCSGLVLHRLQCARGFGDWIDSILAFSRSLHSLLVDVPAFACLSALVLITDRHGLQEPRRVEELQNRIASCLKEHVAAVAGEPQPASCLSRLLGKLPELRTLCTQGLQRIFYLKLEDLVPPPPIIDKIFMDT
Method: as §1, with “For dose-response curve fitting and calculation of EC50 values, the equation "[Agonist] vs. response -- Variable slope (four parameters)" was used in GraphPad Prism (version 7.00, GraphPad Software, La Jolla, CA, USA). Selectivity profiling was performed with identical procedures using pFA-CMV-Nur77-LBD^14, pFA-CMV-NOR-1-LBD^14, pFA-CMV-THRα-LBD^39, pFA-CMV-RARα-LBD^40, pFA-CMV-PPARα-LBD^41, pFA-CMV-PPARγ-LBD^41, pFA-CMV-PPARδ-LBD^41, pFA-CMV-LXRα-LBD^37, pFA-CMV-FXR-LBD^42 and pFA-CMV-hRXRα-LBD^43.” left out

[8] = test system: THRα, RARα, PPARα, PPARγ, PPARδ, LXRα, FXR, RXRα; assay: Selectivity screening on nuclear receptors outside the NR4A family (Gal4 hybrid reporter gene assays); assay type: cell-based
Method: as §1, with “For dose-response curve fitting and calculation of EC50 values, the equation "[Agonist] vs. response -- Variable slope (four parameters)" was used in GraphPad Prism (version 7.00, GraphPad Software, La Jolla, CA, USA). Selectivity profiling was performed with identical procedures using pFA-CMV-Nur77-LBD^14, pFA-CMV-NOR-1-LBD^14, pFA-CMV-THRα-LBD^39, pFA-CMV-RARα-LBD^40, pFA-CMV-PPARα-LBD^41, pFA-CMV-PPARγ-LBD^41, pFA-CMV-PPARδ-LBD^41, pFA-CMV-LXRα-LBD^37, pFA-CMV-FXR-LBD^42 and pFA-CMV-hRXRα-LBD^43.” left out

[9] = 0.1 µM, 0.3 µM, mRNA vs. DMSO control

In the case of `Cc1[nH]c2c(Cl)cccc2c1N` [Compound 6, 7-chloro-2-methyl-1H-indol-3-amine], the stability [1] is reported as “not stable; also recorded: unstable”.
For `CCN(CC)Cc1cc(Nc2ccnc3cc(Cl)ccc23)ccc1O` [Compound 1, amodiaquine], the “ligand efficiency (LE)” value (Nurr1 [2]) is listed as 0.26, the “size-independent ligand eff. (SILE)” value (Nurr1 [2]) is listed as 1.79 and the EC50 (Nurr1 [3]) is listed as about 20000 nM.
With `Cc1nc2c(Cl)cccn2c1NC(=O)c1ccc(-c2ccccc2)[nH]1` [Compound 29] the “EC50(NOR-1)” value (NOR-1) was “no effect; also recorded: no activation (10 µM)”, the “Kd(Nurr1 LBD)” value (Nurr1 LBD; result in words, ITC with 100 µM 29 and 30 µM protein) was “no detectable binding; also recorded: no binding ^b” and the “induction of Nurr1-regulated gene expression” value ([4]; 10 µM) was “no effect; also recorded: no induction”. The “less active than 36 as Nurr1 modulator” value (Nurr1 [5]) was “more than 100 fold”, the “EC50(Nurr1) (max. activation)” value (Nurr1 [5]; result in words, at 10 µM) was “no Nurr1 agonism; also recorded: inactive (10 µM); also recorded: no activation (10 µM)” and the “EC50(NBRE)” value (Nurr1 monomer (NBRE); at 10 µM) was “no activation (10 µM)”. The “EC50(NurRE)” value (Nurr1 homodimer (NurRE); result in words, at 10 µM) was “no activation (10 µM)”, the “EC50(DR5) [+0.1 µM BEX]” value ([6]; result in words, at 10 µM) was “no activation (10 µM)” and the aq. solubility [7] was 4.1 µg/mL. The “EC50(Nur77)” value (Nur77; result in words, at 10 µM) was “no effect; also recorded: no activation (10 µM)”.
In the case of `Cc1nc2c(Cl)cccn2c1NC(=O)c1ccc(-c2ccc(N(C)C)cc2)o1` [Compound 36, N-(8-Chloro-2-methylimidazo[1,2-a]pyridin-3-yl)-5-(4-(dimethylamino)phenyl)furan-2-carboxamide], the Kd (Nurr1 LBD; ITC at 25°C) is reported as 170 nM, the “expression of superoxide dismutase 2 (SOD2)” value [4, 9] is reported as “induced expression” and the “expression of tyrosine hydroxylase (TH)” value [4, 9] is reported as “induced expression”. The “expression of vesicular amino acid transporter 2 (VMAT2)” value [4, 9] was “induced expression”, the EC50 (Nurr1 [5]; Gal4-Nurr1 hybrid reporter gene assay, mean±SD, n≥3) was 90 ± 5 nM and the selectivity ([8]; Nurr1 vs. nuclear receptors outside the NR4A family) was over 30 fold. The “activity outside the NR4A family” value ([8]; at 3 µM, n=3) was “no off-target activity”, the “EC50(NBRE)” value (Nurr1 monomer (NBRE); at 1 µM) was “inactive; also recorded: no activation (1 µM)” and the EC50 (Nurr1 homodimer (NurRE)) was 94 ± 3 nM. The “enhancement of potency by bexarotene (factor)” value ([6]; DR5, 0.1 µM BEX) was over 5, the EC50 ([6]; with 0.1 µM bexarotene (BEX)) was 33 nM and the EC50 ([6]; without bexarotene, read-out: EC50(DR5)) was 165 nM. For the same compound, the aq. solubility [7] was 6.8 µg/mL and the EC50 (Nur77) was 330 ± 40 nM.
